Assays:
COX-2 = molecular target: T1, COX-2 (Homo sapiens, UniProt P35354); test: COX Inhibitor Screening Assay Kit, COX-2 inhibition; assay type: biochemical; conditions: for percentage of enzyme inhibition, COX-2: CDXs 20 µmol/L, mean ± standard deviation, triplicate in two independent days
T1 construct: purchased Cayman Chemical
T1 sequence (P35354 18-604): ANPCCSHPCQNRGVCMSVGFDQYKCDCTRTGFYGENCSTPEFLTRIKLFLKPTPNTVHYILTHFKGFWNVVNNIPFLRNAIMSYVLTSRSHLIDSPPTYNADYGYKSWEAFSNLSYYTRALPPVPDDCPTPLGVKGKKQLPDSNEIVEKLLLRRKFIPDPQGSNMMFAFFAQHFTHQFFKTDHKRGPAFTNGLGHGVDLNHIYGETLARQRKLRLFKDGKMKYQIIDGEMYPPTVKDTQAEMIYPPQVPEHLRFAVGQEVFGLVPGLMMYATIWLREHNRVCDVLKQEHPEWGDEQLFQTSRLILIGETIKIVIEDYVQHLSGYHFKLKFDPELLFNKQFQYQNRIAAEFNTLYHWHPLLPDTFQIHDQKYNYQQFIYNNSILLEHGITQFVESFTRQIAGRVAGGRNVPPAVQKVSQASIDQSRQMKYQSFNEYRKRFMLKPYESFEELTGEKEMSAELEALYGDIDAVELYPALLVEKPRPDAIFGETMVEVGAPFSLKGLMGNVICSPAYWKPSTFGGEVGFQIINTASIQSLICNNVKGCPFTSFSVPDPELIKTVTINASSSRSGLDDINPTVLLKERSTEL
Method: (§1) The effect of CDXs previously obtained in our group as inhibitors of membrane located enzymes that might be involved in inflammatory processes, namely COX-1 and COX-2, was evaluated. Three enantiomeric pairs of CDXs were chosen to study the inhibitory effect of both enantiomers of each pair face to biological targets in order to evaluate potency and enantioselectivity. The effect on COXs activity was studied by spectrofluorimetry using a commercial kit measuring the peroxidation activity of COXs. The kit includes isoenzyme-specific inhibitors for distinguishing COX-1 from COX-2 activities.
(§2) The evaluation of the inhibition of COX-1 and COX-2 by CDXs was conducted using the commercially available COX (ovine/human) Inhibitor Screening Assay Kit (Cayman Chemical, Michigan, MI, USA). Briefly, the assay implies an enzymatic immunoassay based on the competition between prostaglandins (PGs) and a PG-acetylcholinesterase (AChE) conjugate (PG tracer), which is then evaluated by the addition of Ellman’s reagent. All the solutions required for the experiment were prepared according to the manufacturer’s instructions. Each compound was analysed in two independent days, in triplicate. CDX working solutions were prepared in DMSO to a final concentration of 20 µM. […] Absorbance measurements at 412 nm were performed in a Synergy HT microplate reader (Bio-Tek Instruments, Winooski, VT, USA) operated with Gen5 software (Bio-Tek Instruments).

COX-1 = molecular target: T2, COX-1 (Ovis aries, UniProt P05979); test: COX Inhibitor Screening Assay Kit, COX-1 inhibition; assay type: biochemical, ovine; conditions: CDXs 20 µmol/L; mean ± standard deviation, triplicate in two independent days
T2 construct: purchased Cayman Chemical
T2 sequence (P05979 25-600): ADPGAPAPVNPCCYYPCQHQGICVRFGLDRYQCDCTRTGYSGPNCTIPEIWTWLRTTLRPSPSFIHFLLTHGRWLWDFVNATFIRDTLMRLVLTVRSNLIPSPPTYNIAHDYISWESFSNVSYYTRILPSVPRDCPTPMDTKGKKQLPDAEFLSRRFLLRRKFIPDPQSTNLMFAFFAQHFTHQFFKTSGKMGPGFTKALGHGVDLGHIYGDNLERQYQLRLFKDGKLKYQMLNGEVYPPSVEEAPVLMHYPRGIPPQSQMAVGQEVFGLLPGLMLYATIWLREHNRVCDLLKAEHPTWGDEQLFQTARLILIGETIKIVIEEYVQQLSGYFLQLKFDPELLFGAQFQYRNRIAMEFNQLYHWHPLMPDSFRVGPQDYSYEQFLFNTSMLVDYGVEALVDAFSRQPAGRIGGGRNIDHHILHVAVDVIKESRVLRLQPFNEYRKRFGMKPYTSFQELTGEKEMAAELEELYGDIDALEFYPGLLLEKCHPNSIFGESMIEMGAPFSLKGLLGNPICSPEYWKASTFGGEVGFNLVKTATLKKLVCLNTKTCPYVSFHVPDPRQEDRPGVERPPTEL
Method: as §1, §2

HSA = molecular target: T3, HSA (Homo sapiens, UniProt P02768); test: Interaction with human serum albumin by fluorescence quenching; assay type: binding; conditions: for Ymax, maximum percentage of HSA fluorescence quenching / Kd: HSA 2 µM, pH 7.4, 25 °C; for Ymax, maximum percentage of HSA fluorescence quenching / Kd / ∆G Binding: mean ± standard deviation of triplicate runs; for Kd: read-out: Kd, dissociation constant of CDX-HSA; for ∆G Binding: HSA binding
T3 construct: purchased Sigma-Aldrich
T3 sequence (P02768 25-609): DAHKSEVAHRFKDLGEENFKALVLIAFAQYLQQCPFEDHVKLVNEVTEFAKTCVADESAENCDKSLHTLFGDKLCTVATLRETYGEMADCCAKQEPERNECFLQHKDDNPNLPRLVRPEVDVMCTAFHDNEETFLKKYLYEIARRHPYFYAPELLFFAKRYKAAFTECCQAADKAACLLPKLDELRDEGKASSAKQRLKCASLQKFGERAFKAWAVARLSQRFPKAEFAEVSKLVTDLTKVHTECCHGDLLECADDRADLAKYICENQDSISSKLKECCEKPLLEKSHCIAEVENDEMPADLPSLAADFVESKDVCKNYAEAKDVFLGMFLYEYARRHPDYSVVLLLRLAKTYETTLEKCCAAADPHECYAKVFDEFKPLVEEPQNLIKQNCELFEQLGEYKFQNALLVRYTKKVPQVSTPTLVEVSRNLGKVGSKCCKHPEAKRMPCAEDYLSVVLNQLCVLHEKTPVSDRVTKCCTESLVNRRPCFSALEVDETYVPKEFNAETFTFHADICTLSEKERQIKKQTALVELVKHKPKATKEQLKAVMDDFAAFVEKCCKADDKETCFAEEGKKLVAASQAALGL
Method: Evaluation of the binding of CDXs to HSA was based on the quenching of HSA intrinsic fluorescence. Phosphate buffer consisting of 7.5 mM Na2HPO4, 1.5 mM KH2PO4 and 140 mM NaCl (pH 7.4) was used in the preparation of CDX solutions. Solutions of HSA fraction V (Sigma-Aldrich, St. Louis, MO, USA) were prepared in water. Briefly, 500 µL of HSA (fixed final concentration 2 µM), increasing volumes of drug solution (n = 13, 0–200 µM) and phosphate buffer solution (pH 7.4) were mixed to a final volume of 1500 µL. The corresponding blank solutions were identically prepared and analysed in the absence of the drug. Fluorescence emission spectra were recorded in the range of 300–450 nm upon excitation at 295 nm. Excitation spectra were also recorded between 220 and 310 nm with emission set at 330 nm. For individual measurements, excitation and emission wavelength were set at 295 nm and 330 nm, respectively. For each measurement, fluorescence emission was automatically acquired during 180 s (5 nm bandwidth). For all compounds, UV-vis absorption spectra (200–500 nm) were recorded. These measurements were used to correct the fluorescence intensity values due to inner filter effects at the excitation wavelength. All experiments were performed at room temperature (25 ± 1 °C). Fluorescence and absorbance measurement were performed in a LS-50B spectrometer (Perkin Elmer, Waltham, MA, USA) and a V-660 spectrophotometer (Jasco, Easton, MD, USA) respectively.
HSA-CDX binding parameters were calculated using the Origin 8.5.1 software (8.5.1, Northampton, MA, USA). The fitting of the experimental values was made according to the Langmuir binding equation (Equation (1)) to calculate HSA binding parameters: (1) [HSA−CDX]=[HSA]/1+ Kd/[CDX] where [HSA], [CDX] and [HSA-CDX] are given in μM and Kd corresponds to the dissociation constant of HSA-CDX complexes.
In terms of fluorescence quenching mediated by the compound, the previous Langmuir isotherm can be rewritten as follows (Equation (2)):(2) %quenching=ymax^n/1+ Kd/[CDX] where ymax corresponds to the highest percentage of quenching induced by a given compound and n accounts for the number of biding sites of the enzyme to the CDX. Finally, free Gibbs energy (ΔG) was also determined for all the interactions.

SMILES | percentage of enzyme inhibition, COX-2 (COX-2) [%] | percentage of enzyme inhibition, COX-1 (COX-1) [%] | Ymax, maximum percentage of HSA fluorescence quenching (HSA) [%] | Kd (HSA) [µM] | enzyme-type selectivity COX-2 vs COX-1 (COX-2; paired t-test, p < 0.05) | ∆G Binding (HSA) [kcal/mol] | difference in HSA binding affinity between (S)- and (R)-enantiomers (HSA; (S)-enantiomer higher affinity than (R)-enantiomer)
COc1ccc2c(=O)c3cc(C(=O)N[C@@H](CO)c4ccccc4)ccc3oc2c1 [(R)-(+)-CDX1] | 84.7 ± 5.7 | 79.6 ± 5.0 | 109.6 ± 1.6 | 61.8 ± 6.5 | – | – | –
COc1ccc2c(=O)c3cc(C(=O)N[C@@H](CO)C(C)C)ccc3oc2c1 [(R)-(+)-CDX2] | 73.2 ± 0.4 | 66.8 ± 1.6 | 108.2 ± 0.2 | 29.2 ± 0.9 | more active at inhibiting COX-2 than COX-1 | -2.0 ± 0.1 | –
COc1ccc2c(=O)c3cc(C(=O)N[C@H](C)CO)ccc3oc2c1 [(R)-(−)-CDX3] | 75.1 ± 7.2 | 75.2 ± 9.0 | 113.2 ± 1.4 | 26.4 ± 1.2 | – | – | –
COc1ccc2c(=O)c3cc(C(=O)N[C@@H](C)CO)ccc3oc2c1 [(S)-(+)-CDX3] | 93.4 ± 11.4 | 91.7 ± 10.7 | 116.2 ± 0.6 | 31.4 ± 2 | – | -2.0 ± 0.2 | –
COc1ccc2c(=O)c3cc(C(=O)N[C@H](CO)c4ccccc4)ccc3oc2c1 [(S)-(−)-CDX1] | 80.1 ± 12.8 | 87.6 ± 2.1 | 105.3 ± 0.4 | 23.6 ± 0.8 | – | – | –
COc1ccc2c(=O)c3cc(C(=O)N[C@H](CO)C(C)C)ccc3oc2c1 [(S)-(−)-CDX2] | 85.7 ± 4.5 | 82.9 ± 5.2 | 107.4 ± 5.4 | 24.7 ± 1.1 | – | – | –
COc1ccc2c(=O)c3cc(C(=O)NC(CO)c4ccccc4)ccc3oc2c1 (stereo not shown) [CDX1] | – | – | – | – | – | – | ca. 2.6 fold

Reference: publication PMC5490407, “Chiral Derivatives of Xanthones: Investigation of the Effect of Enantioselectivity on Inhibition of Cyclooxygenases (COX-1 and COX-2) and Binding Interaction with Human Serum Albumin” (Pharmaceuticals, 2017)
